Data reported in paper PMC4215638, “J-147 a Novel Hydrazide Lead Compound to Treat Neurodegeneration: CeeTox™ Safety and Genotoxicity Analysis” (Journal of neurology & neurophysiology, 2013).

Legend:
[1] = system: rat hepatoma (H4IIE) cell line; assay: CeeTox membrane toxicity, α-GST leakage ELISA; type: cell-based; settings: H4IIE cells, 24hour; membrane toxicity measured using GST leakage
Method: (§1) All Ceetox assays utilizing the rat hepatoma (H4IIE) cell line as the test system were conducted by CeeTox Inc Kalamazoo, MI. Ceetox assays are described in detail by McKim and Lapchak and according to a Standard Operating Procedure (SOP).
(§2) Rat hepatoma derived H4IIE cells were used as the test system because the cell have a rapid doubling time in culture (i.e. 22 hours). The culture medium used for these cells was Eagles Minimum Essential Medium (MEM) with 10% bovine serum and 10% calf serum (Invitrogen). H4IIE cells were seeded into 96-well plates and allowed to equilibrate for approximately 48 hr before drug assay to allow cells to move into a stable growth phase prior to treatment. Following the equilibration period the cells were exposed to J-147 at concentrations of 1–300 μM. Three to 7 replicates were done for each assay to construct concentration-response curves. Solubility was determined by Nephalometry techniques immediately after dosing and prior to harvesting the cells at 6 or 24 hr. Following the incubation period, cells or their supernatant (culture medium) were analyzed for changes in cell proliferation (cell mass), membrane leakage, mitochondrial function, oxidative stress, and apoptosis. The resultant exposure concentration response curves were graphed and analyzed for determining the concentration that produced a half maximal response or TC50 [28, 30].
(§3) The presence of α-Glutathione S-transferase (α-GST), an enzyme leakage marker, was measured in the culture medium using an ELISA assay purchased from Argutus Medical. […] Absorbance values were measured with a Packard SpectraCount™ reader at 450 nm and reference absorbance at 650 nm. Leakage of α-GST from the cell into the culture medium was determined by collecting the culture medium at the end of the exposure period. Thus, the values measured represent total enzyme leakage lost over the exposure period. […] Sample absorbance was read at 570 nm and reference absorbance at 650 nm with a Packard Fusion reader. […]

[2] = system: rat hepatoma (H4IIE) cell line; assay: CeeTox MTT reduction assay; type: cell-based; settings: H4IIE cells, 24hour
Method: as §1, §2, §3

P-glycoprotein (PgP) = P-glycoprotein (PgP) binding using the MTT assay with and without cyclosporin A; type: cell-based, rat; design: key to % Difference (PgP interaction ranking): NC=No change; settings: for % Control (Compound + CSA) / % Control (Compound): MTT, H4IIE cells, single exposure concentration (50 μM), 24-hr; for % Control (Compound + CSA): with cyclosporin A; for % Control (Compound): without CSA; for % Difference (PgP interaction ranking): difference in the absence and presence of CSA
Method: For this assay, cells are incubated with and without cyclosporin A (CSA) (a PgP inhibitor) at a single exposure concentration (50 μM) and the difference in toxicity determined with the MTT assay. Compounds with increased toxicity in the presence of CSA have a high probability of binding to PgP proteins. However, compounds of low toxicity will typically not show a difference relative to the addition of CSA, regardless of whether they bind to PgP. At the end of the 24-hr exposure period the culture medium was removed and the remaining attached cells were assayed for their ability to reduce MTT. Viable cells will have the greatest amount of MTT reduction and highest absorbance values. Percent control values were determined by dividing the mean absorbance/fluorescence of the treatment group by the mean absorbance of the control group and multiplying by 100.

Caspase 3 in H4IIE cells = assay: Apoptosis: caspase 3 activity (DEVD-AMC); type: cell-based, rat
Method: as §2
Caspase 3 activity was determined using a caspase substrate (DEVD, Asp-Glu-Val-Asp) labeled with a fluorescent molecule, 7-Amino-4-methylcoumarin (AMC). Caspase 3 cleaves the tetrapeptide between D and AMC, thus releasing the fluorogenic green AMC [28]. Following the test article exposure to cells in 96-well plates, medium was aspirated from plates and PBS added to each well. Plates were stored at −80°C to lyse cells and store samples until further analysis. On the day of analysis, plates were removed from freezer and thawed. […] AMC release was measured in a spectrofluorometer at an excitation wavelength of 360 nm and an emission wavelength of 460 nm. Values are expressed as relative fluorescent units (RFU). […]

[3] = Microsomal metabolic stability; type: in vitro ADME; settings: 30 minutes at 37°C, rat microsomes
Method: Metabolic stability was conducted using pooled microsomes from non-induced male Sprague-Dawley rats. J-147 was incubated for 30 minutes at 37°C at concentrations of 1 μM. Subsequent HPLC analysis using a Waters Alliance 2795 in combination with a Waters Quattro Premier mass spectrometer measured disappearance of the parent molecule. The compounds were run on a Waters X-BridgeC18 (186003021) 50 × 2.1 mm column with 3.5 micron particle packing at a flow rate of 1 ml/min and with the temperature maintained at 50°C. Solvent A was water with 0.1% formic acid. Solvent B was acetonitrile with 0.07% formic acid. The data for 3 replicates are expressed as percent of parent remaining.

HT22 and primary cell = system: HT22 and primary cell; design: method as in PMID 22194796, PMID 23673233; settings: HT22 and primary cortical cells, IAA or glutamate toxicity; read-out: EC50 neuroprotection (cell survival); cited from earlier work
[4] = system: low-density cultured rat cortical neurons; settings: previously published; read-out: EC50 neurotrophism; cited from earlier work
MAOB = system: MAOB; design: method as in PMID 23673233; settings: read-out: EC50 MAOB inhibition; cited from earlier work
dopamine transporter = system: dopamine transporter; design: method as in PMID 23673233; settings: read-out: EC50 dopamine transporter inhibition; cited from earlier work
AD mouse = system: AD mouse; design: method as in PMID 23673233; settings: cited from earlier work

Structure (SMILES)	Mem Tox TC50 [1] [µM]	MTT TC50 [2] [µM]	% Control (Compound + CSA) (P-glycoprotein (PgP)) [%]	% Control (Compound) (P-glycoprotein (PgP)) [%]	% Difference (PgP interaction ranking) (P-glycoprotein (PgP))	Effect on caspase-3 activity (Caspase 3 in H4IIE cells)	Interaction with Permeability-glycoprotein (P-glycoprotein (PgP); cells incubated with and without CSA, 50 μM)	Metabolism Ranking ([3]; 1 μM)	remaining at 0.5 h, 1 μM ([3]; male, Sprague-Dawley, pooled microsomes from non-induced rats, percent of parent remaining) [%]	EC50 (HT22 and primary cell) [µM]	EC50 [4] [µM]	EC50 (MAOB) [µM]	EC50 (dopamine transporter) [µM]	Safety and memory impairment after chronic administration (AD mouse)	Caspase 3 Activity (Index/Dose): dose (Caspase 3 in H4IIE cells; dose part of cell)	Caspase 3 Activity (Index/Dose): index (Caspase 3 in H4IIE cells; index part of cell)
C=C(C)[C@H]1Cc2c(ccc3c2O[C@@H]2COc4cc(OC)c(OC)cc4[C@@H]2C3=O)O1 [Rotenone, rotenone]	0.93	0.07	86.1	80.5	NC											
COc1cccc(/C=N/N(C(=O)C(F)(F)F)c2ccc(C)cc2C)c1 [J-147, (E)-N-(2,4-Dimethylphenyl)-2,2,2-trifluoro-N′-(3-methoxybenzylidene) acetohydrazide]	>300	228	92.1	93.7	NC	did not affect	low interaction	High (<45=high)	12	0.06 to 0.115	0.025	1.88	0.65	safe and beneficial to reduce memory impairment		
CC[C@@]1(O)C(=O)OCc2c1cc1n(c2=O)Cc2cc3ccccc3nc2-1 [Camptothecin, camptothecin]	>300	0.5	85.3	76.6	NC										1 (0–200=1)	3 (400–600=3)
